Legend:
[1] = Toxicity, 24 hr. LD50 (PO); settings: in vivo
[2] = test system: metrazol convulsive seizures; experiment: antimetrazol test (oral compound, protection from metrazol-induced convulsive seizures); type: in vivo; settings: Mus musculus, 1 h, mice, one hour before metrazol s.c., Miller-Tainter method
Protocol: Periodically a metrazol standardization test precedes the assay to ascertain the quantity of metrazol, administered to control mice, sufficient to induce convulsive seizures in all animals. This is usually 125 mg/kg. In the antimetrazol test, a compound is administered orally to groups of four mice at various dose levels. One hour later, metrazol (at a dose level previously determined in the standardization test) is administered subcutaneously and the animals are observed for protection from convulsive seizures. Results are recorded as the number of animals protected against convulsions. The dose at which 50% of the animals are protected from convulsive seizures is expressed as the ED50. On active compounds, 8 animals employed per dose group. The ED50 is calculated by the Miller-Tainter method (Proc.Soc.Exp.Med. and Bio., 57, 261, 1944).

^3 H--Imipramine Binding = experiment: imipramine binding assay (3H-imipramine, rat cortex homogenate); parameters: species or system Sprague Dawley male rats; settings: 15 minutes at room temperature, nonspecific binding by 10^-3 M imipramine
Protocol: IMIPRAMINE BINDING ASSAY METHOD
Sprague Dawley male rats (180 g) are decapitated and the brains immediately placed on ice. Cortex is dissected and homogenized in 8 volumes of 0.25M sucrose. Homogenate is centrifuged at 2900 rpm (1000×g) in a Sorvall RCLB centrifuge with a SM 24 head. Supernatant is decanted and polytronized for 60 seconds using a Brinkmann Polytron (Model PT-10) at setting 5. Dilutions of imipramine hydrochloride are made in ehtanol (1:5). Each assay sample contains: 1.8 ml of Krebs Ringer Buffer, 20 μl of imipramine or other drugs and 20 μl of ^3 H-imipramine ([…]). The ^3 H-imipramine is from New England Nuclear #NET 576, 20-40 curies/millimole. Imipramine (10^-3 M) is used to define nonspecific binding. Incubation is for 15 minutes at room temperature. Samples are then put in ice bath for 5 minutes. Each sample is filtered on a 45-place manifold (E. Sandbek Co., Airville, Pa.). Filter is a Whatman GF/B. Filters are placed in 13 ml of aquasol and shaken for 2 hours, then the radioactivity trapped on the filter is determined by liquid scintillation spectrometry.

Row | Structure (SMILES) | LD50 at 24 h [1] [mg/kg] | ED50 [2] [mg/kg] | IC50 (^3 H--Imipramine Binding) [µM]
1 | [O-][N+]1=C(c2ccccc2)c2cc(Cl)ccc2C=CC1 [8-Chloro-1-phenyl-3H-2-benzazepine-2-oxide] | > 1000 | 5.2 | –
2 | Cl.Cl.NCC#CC1=CCN=C(c2ccccc2F)c2cc(Cl)ccc21 [8-Chloro-5-(1-amino-2-propyn-3-yl)-1-(2-fluorophenyl)-3H-2-benzazepine dihydrochloride] | 500 | 3 | 20
3 | Cl.Cl.NCC#CC1=CCN=C(c2ccccc2)c2cc(Cl)ccc21 [8-Chloro-5-(1-amino-2-propyn-3-yl)-1-phenyl-3H-2-benzazepine dihydrochloride] | 500 | 32 | 11
4 | CN(C)CC#CC1=CCN=C(c2ccccc2F)c2cc(Cl)ccc21.Cl.Cl [8-Chloro-5-(1-dimethylamino-2-propyn-3-yl)-1-(2-fluorophenyl)-3H-2-benzazepine dihydrochloride] | > 1000 | 19 | –
5 | CN(C)CCCN1c2ccccc2CCc2ccccc21 [Imipramine, reference compound] | – | – | 7.1

Reference: patent US4549988A, “3H-2-Benzazepines” (Hoffmann-La Roche Inc., priority 1983, dated 1985)
